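96-well plates; 48 h exposure; 5 concentrations. Endpoints by linear interpolation between flanking doses. Not reached: highest tested concentration assigned. TGI denotes the concentration required for complete inhibition of growth.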
Experiments:
Assay in all cases: NCI tumour cell line growth inhibition, 48 h
A498 renal = tested on: A498 renal
SF-539 CNS = tested on: SF-539 CNS
SN12C renal = tested on: SN12C renal
CCRF-CEM leukemia = tested on: CCRF-CEM leukemia
RPMI-8226 leukemia = tested on: RPMI-8226 leukemia
U251 CNS = tested on: U251 CNS
NCI-H226 lung = tested on: NCI-H226 lung
UACC-257 melanoma = tested on: UACC-257 melanoma
RXF 393 renal = tested on: RXF 393 renal
COLO 205 colon = tested on: COLO 205 colon
MDA-N = tested on: MDA-N
HCT-116 colon = tested on: HCT-116 colon
NCI-H460 lung = tested on: NCI-H460 lung
SW-620 colon = tested on: SW-620 colon
CAKI-1 renal = tested on: CAKI-1 renal
HOP-62 NSCLC = tested on: HOP-62 NSCLC
K-562 leukemia = tested on: K-562 leukemia
SK-MEL-5 melanoma = tested on: SK-MEL-5 melanoma
OVCAR-3 ovarian = tested on: OVCAR-3 ovarian
NCI/ADR-RES ovarian = tested on: NCI/ADR-RES ovarian
T-47D breast = tested on: T-47D breast
IGROV1 ovarian = tested on: IGROV1 ovarian
KM12 colon = tested on: KM12 colon
SK-OV-3 ovarian = tested on: SK-OV-3 ovarian
OVCAR-4 ovarian = tested on: OVCAR-4 ovarian
SK-MEL-28 melanoma = tested on: SK-MEL-28 melanoma
BT-549 breast = tested on: BT-549 breast
SF-268 CNS = tested on: SF-268 CNS
UO-31 renal = tested on: UO-31 renal
HS 578T breast = tested on: HS 578T breast
DU-145 prostate = tested on: DU-145 prostate
NCI-H23 lung = tested on: NCI-H23 lung
MDA-MB-231 breast = tested on: MDA-MB-231 breast
A549 NSCLC = tested on: A549 NSCLC
SNB-75 CNS = tested on: SNB-75 CNS
EKVX NSCLC = tested on: EKVX NSCLC
HOP-92 NSCLC = tested on: HOP-92 NSCLC
MALME-3M melanoma = tested on: MALME-3M melanoma
OVCAR-8 ovarian = tested on: OVCAR-8 ovarian
UACC-62 melanoma = tested on: UACC-62 melanoma
SR leukemia = tested on: SR leukemia
M14 melanoma = tested on: M14 melanoma
PC-3 prostate = tested on: PC-3 prostate
786-0 renal = tested on: 786-0 renal
HL-60(TB) leukemia = tested on: HL-60(TB) leukemia
MCF7 breast = tested on: MCF7 breast
HT29 colon = tested on: HT29 colon
MDA-MB-435 = tested on: MDA-MB-435
HCT-15 colon = tested on: HCT-15 colon
OVCAR-5 ovarian = tested on: OVCAR-5 ovarian
SK-MEL-2 melanoma = tested on: SK-MEL-2 melanoma
SNB-19 CNS = tested on: SNB-19 CNS
SF-295 CNS = tested on: SF-295 CNS
LOX IMVI melanoma = tested on: LOX IMVI melanoma
MOLT-4 leukemia = tested on: MOLT-4 leukemia
TK-10 renal = tested on: TK-10 renal
HCC-2998 colon = tested on: HCC-2998 colon
NCI-H522 lung = tested on: NCI-H522 lung
ACHN renal = tested on: ACHN renal

Measured: TGI

O=C1CC(=O)n2cnc3cccc(c32)N1
not listed: LOX IMVI melanoma | MOLT-4 leukemia | TK-10 renal | HCC-2998 colon | NCI-H522 lung | ACHN renal
> 100 µM: all other assays above

COc1ccc(C(=O)CC(c2ccccc2)[C@H]2C(c3ccc(OC)cc3)=Nc3c(nc(SC)n(C)c3=O)NC2c2ccccc2)cc1 (some centres undefined)
not listed: OVCAR-4 ovarian | UO-31 renal | SNB-75 CNS | MALME-3M melanoma | OVCAR-8 ovarian | HL-60(TB) leukemia | ACHN renal
> 100 µM: all other assays above

CC(C)(C)[Si](C)(C)OCc1cccc(OCCOc2cccc(CO[Si](C)(C)C(C)(C)C)c2[N+](=O)[O-])c1[N+](=O)[O-]
not listed: RPMI-8226 leukemia | K-562 leukemia | MDA-MB-231 breast | HCC-2998 colon
> 100 µM: all other assays above

CN(Cc1cnc2nc(N)nc(N)c2n1)c1ccc(C(=O)NC(CO)CCCO)cc1 (centres undefined)
not listed: OVCAR-4 ovarian | A549 NSCLC | HOP-92 NSCLC | HCC-2998 colon | NCI-H522 lung
> 100 µM: all other assays above
